# Measured values published in ChEMBL document CHEMBL4152326 (2018).
# Calls of active or inactive are those of the source. No cut-off for these calls is given here.
# How the values were obtained:
# Pseudomonas aeruginosa [1] = test: Antimicrobial activity against Pseudomonas aeruginosa SR24 in presence of human apo-transferrin by broth microdilution method; assay type: functional
# Pseudomonas aeruginosa [2] = test: Antimicrobial activity against AmpC overproducing Pseudomonas aeruginosa SR24-12 in presence of human apo-transferrin by broth microdilution method; assay type: functional
# Pseudomonas aeruginosa [3] = test: Antimicrobial activity against IMP-1 producing Pseudomonas aeruginosa SR27001 in presence of human apo-transferrin by broth microdilution method; assay type: functional
# Pseudomonas aeruginosa [4] = test: Antimicrobial activity against VIM-2 producing Pseudomonas aeruginosa SBRKM-28 in presence of human apo-transferrin by broth microdilution method; assay type: functional
# Pseudomonas aeruginosa [5] = test: Antimicrobial activity against IMP-1 producing Pseudomonas aeruginosa SR27060 in presence of human apo-transferrin by broth microdilution method; assay type: functional
# Pseudomonas aeruginosa [6] = test: Antimicrobial activity against Pseudomonas aeruginosa 27060deltaR1 harboring deletion of R1 plasmid in presence of human apo-transferrin by broth microdilution method; assay type: functional
# [7] = tested on: Stenotrophomonas maltophilia; test: Antimicrobial activity against L-1 producing Stenotrophomonas maltophilia SR21970 in presence of human apo-transferrin by broth microdilution method; assay type: functional
# Acinetobacter baumannii = test: Antimicrobial activity against OXA-23/OXA-58 producing Acinetobacter baumannii SR27323 in presence of human apo-transferrin by broth microdilution method; assay type: functional
# Klebsiella pneumoniae = test: Antimicrobial activity against KPC-2 producing Klebsiella pneumoniae ATCC BAA-1705 in presence of human apo-transferrin by broth microdilution method; assay type: functional
# Escherichia coli = test: Antimicrobial activity against SHV-4 producing Escherichia coli ATCC BAA-200 in presence of human apo-transferrin by broth microdilution method; assay type: functional
# [8] = Iron chelating activity in presence of cetyltrimethylammonium bromide at pH 5.5 by chromeazurol B dye based spectrophotometric method
# Pseudomonas aeruginosa [9] = test: Antibacterial activity against Pseudomonas aeruginosa SR27001 infected in Jcl:ICR mouse systemic infection model assessed as increase in mouse survival rate administered iv 1 to 5 hrs post infection measured over 7 days; assay type: functional
Structure (SMILES),MIC (Pseudomonas aeruginosa [1]),MIC (Pseudomonas aeruginosa [2]),MIC (Pseudomonas aeruginosa [3]),MIC (Pseudomonas aeruginosa [4]),MIC (Pseudomonas aeruginosa [5]),MIC (Pseudomonas aeruginosa [6]),MIC [7],MIC (Acinetobacter baumannii),MIC (Klebsiella pneumoniae),MIC (Escherichia coli),Activity [8],ED50 (Pseudomonas aeruginosa [9])
CC(C)(O/N=C(\C(=O)N[C@@H]1C(=O)N2C(C(=O)[O-])=C(C[N+]3(CCNC(=O)c4ccc(O)c(O)c4)CCCC3)CS[C@H]12)c1csc(N)n1)C(=O)O,0.125 µg/mL,1 µg/mL,2 µg/mL,0.25 µg/mL,2 µg/mL,2 µg/mL,2 µg/mL,16 µg/mL,0.5 µg/mL,2 µg/mL,Active,
CC(C)(O/N=C(\C(=O)N[C@@H]1C(=O)N2C(C(=O)[O-])=C(C[N+]3(CCNC(=O)c4cc(Cl)c(O)c(O)c4Cl)CCCC3)CS[C@H]12)c1csc(N)n1)C(=O)O,0.125 µg/mL,0.25 µg/mL,0.5 µg/mL,0.063 µg/mL,2 µg/mL,0.5 µg/mL,0.125 µg/mL,0.25 µg/mL,0.031 µg/mL,0.5 µg/mL,Active,
CC(C)(O/N=C(\C(=O)N[C@@H]1C(=O)N2C(C(=O)[O-])=C(C[N+]3(CCNC(=O)c4cc(=O)c(O)c[nH]4)CCCC3)CS[C@H]12)c1csc(N)n1)C(=O)O,0.25 µg/mL,0.25 µg/mL,4 µg/mL,0.25 µg/mL,4 µg/mL,1 µg/mL,0.25 µg/mL,1 µg/mL,0.063 µg/mL,1 µg/mL,Active,10.2 mg/kg
CC(C)(O/N=C(\C(=O)N[C@@H]1C(=O)N2C(C(=O)[O-])=C(C[N+]3(CCNC(=O)c4ccc(O)c(O)c4Cl)CCCC3)CS[C@H]12)c1csc(N)n1)C(=O)O [CEFIDEROCOL],0.25 µg/mL,0.5 µg/mL,1 µg/mL,,2 µg/mL,1 µg/mL,,1 µg/mL,0.063 µg/mL,1 µg/mL,Active,5.48 mg/kg
CC(C)(O/N=C(\C(=O)N[C@@H]1C(=O)N2C(C(=O)[O-])=C(C[N+]3(CCNC(=O)c4cccc(O)c4O)CCCC3)CS[C@H]12)c1csc(N)n1)C(=O)O,0.063 µg/mL,0.25 µg/mL,4 µg/mL,,8 µg/mL,0.5 µg/mL,1 µg/mL,1 µg/mL,0.063 µg/mL,2 µg/mL,Active,
Cc1c(C(=O)NCC[N+]2(CC3=C(C(=O)[O-])N4C(=O)[C@@H](NC(=O)/C(=N\OC(C)(C)C(=O)O)c5csc(N)n5)[C@H]4SC3)CCCC2)ccc(O)c1O,0.5 µg/mL,1 µg/mL,8 µg/mL,,8 µg/mL,2 µg/mL,1 µg/mL,8 µg/mL,0.25 µg/mL,8 µg/mL,Active,
